For 19 compounds, inhibition results are on record in US20210122730A1, “GLUCOCORTICOID RECEPTOR MODULATORS” (ORIC Pharmaceuticals, Inc., priority 2017, published 2021).

Structures are written as SMILES.

In the series the target is T1, CYP2C8 (Homo sapiens, UniProt P10632).
T1 construct: Pooled human microsomes were obtained from Sekisui XenoTech, KS; tissue Sekisui XenoTech, KS; host or cells: pooled human liver microsomes
T1 sequence (P10632 1-490): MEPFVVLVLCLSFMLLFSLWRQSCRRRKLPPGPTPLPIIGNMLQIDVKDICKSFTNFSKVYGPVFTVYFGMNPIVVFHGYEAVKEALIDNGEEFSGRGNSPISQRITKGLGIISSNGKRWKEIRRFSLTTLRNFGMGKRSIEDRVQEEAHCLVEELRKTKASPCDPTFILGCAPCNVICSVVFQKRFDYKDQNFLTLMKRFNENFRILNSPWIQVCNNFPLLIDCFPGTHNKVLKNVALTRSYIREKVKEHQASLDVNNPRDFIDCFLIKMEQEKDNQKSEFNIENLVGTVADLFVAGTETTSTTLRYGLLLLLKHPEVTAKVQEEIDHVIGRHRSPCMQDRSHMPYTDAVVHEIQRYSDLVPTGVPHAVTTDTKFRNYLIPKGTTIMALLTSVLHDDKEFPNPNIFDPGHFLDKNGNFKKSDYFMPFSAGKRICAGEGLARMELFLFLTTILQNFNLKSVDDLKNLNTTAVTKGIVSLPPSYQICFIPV
The series can be described thus: CYP Inhibition Assay (CYP2C8, human liver microsomes, paclitaxel substrate). The class given is in vitro ADME. Conditions: pH 7.4; pooled human liver microsomes 0.1 mg/mL, probe substrate paclitaxel. The essentials: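 CYP2C8 activity read as 6α-hydroxypaclitaxel formation by LC-MS/MS, with % inhibition versus vehicle control. Reactions ran 5 min at 37° C, pH 7.4 phosphate buffer, 0.1 mg/mL pooled human liver microsomes, 1 mM NADPH, duplicate wells.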
(In general: Liver microsomes are a subcellular fraction often used to study metabolism.)
Broadly, the inhibition is how much of the control response was suppressed. A high value points to strong suppression. Consider `Cn1cc(S(=O)(=O)C[C@H]2CCC3=Cc4c(cnn4-c4ccc(F)cc4)C[C@]3(C(=O)c3cc(C(F)(F)F)ccn3)C2)cn1` (single isomer, unassigned) [Example 118], for which the inhibition at 5 min was at most 25%.
Then `CN([C@H]1CCC2=Cc3c(cnn3-c3ccc(F)cc3)C[C@]2(C(=O)c2cc(C(F)(F)F)ccn2)C1)S(=O)(=O)c1ccc(F)cc1` [Example 5, 4-Fluoro-N-((4aS,6S)-1-(4-fluorophenyl)-4a-(4-(trifluoromethyl)picolinoyl)-4,4a,5,6,7,8-hexahydro-1H-benzo[f]indazol-6-yl)-N-methylbenzenesulfonamide], with 25 to 50%; and `Cn1cc(S(=O)(=O)N(C2CC2)[C@H]2CCC3=Cc4c(cnn4-c4ccc(F)cc4)C[C@]3(C(=O)c3cc(C(F)(F)F)ccn3)C2)cn1` [Example 88, N-cyclopropyl-N-((4aS,6S)-1-(4-fluorophenyl)-4a-(4-(trifluoromethyl)picolinoyl)-4,4a,5,6,7,8-hexahydro-1H-benzo[f]indazol-6-yl)-1-methyl-1H-pyrazole-4-sulfonamide], with 25 to 50%; and `CN([C@H]1CCC2=Cc3c(cnn3-c3ccc(F)cc3)C[C@]2(C(=O)c2cc(C(F)(F)F)ccn2)C1)S(=O)(=O)c1ccn(C)n1` [Example 98, N-((4aS,6S)-1-(4-fluorophenyl)-4a-(4-(trifluoromethyl)picolinoyl)-4,4a,5,6,7,8-hexahydro-1H-benzo[f]indazol-6-yl)-N,1-dimethyl-1H-pyrazole-3-sulfonamide], with 25 to 50%.
Then `Cn1cc(S(=O)(=O)N(CC2CC2)[C@H]2CCC3=Cc4c(cnn4-c4ccc(F)cc4)C[C@]3(C(=O)c3cc(C(F)(F)F)ccn3)C2)cn1` [Example 103, N-(cyclopropylmethyl)-N-((4aS,6S)-1-(4-fluorophenyl)-4a-(4-(trifluoromethyl)picolinoyl)-4,4a,5,6,7,8-hexahydro-1H-benzo[f]indazol-6-yl)-1-methyl-1H-pyrazole-4-sulfonamide], with 25 to 50%; and `Cn1ccc(S(=O)(=O)N(CC(F)(F)F)[C@H]2CCC3=Cc4c(cnn4-c4ccc(F)cc4)C[C@]3(C(=O)c3cc(C(F)(F)F)ccn3)C2)n1` [Example 111, N-((4aS,6S)-1-(4-Fluorophenyl)-4a-(4-(trifluoromethyl)picolinoyl)-4,4a,5,6,7,8-hexahydro-1H-benzo[f]indazol-6-yl)-1-methyl-N-(2,2,2-trifluoroethyl)-1H-pyrazole-3-sulfonamide], with 25 to 50%.
The value for `Cn1ccc(S(=O)(=O)[C@H]2CCC3=Cc4c(cnn4-c4ccc(F)cc4)C[C@]3(C(=O)c3cc(C(F)(F)F)ccn3)C2)n1` [Example 113, ((4aS,6S)-1-(4-Fluorophenyl)-6-((1-methyl-1H-pyrazol-3-yl)sulfonyl)-1,4,5,6,7,8-hexahydro-4aH-benzo[f]indazol-4a-yl)(4-(trifluoromethyl)pyridin-2-yl)methanone] was at most 25%.
In turn, `Cn1ccc(S(=O)(=O)N(C2CC2)[C@H]2CCC3=Cc4c(cnn4-c4ccc(F)cc4)C[C@]3(C(=O)c3cc(C(F)(F)F)ccn3)C2)n1` [Example 138, N-cyclopropyl-N-((4aS,6S)-1-(4-fluorophenyl)-4a-(4-(trifluoromethyl)picolinoyl)-4,4a,5,6,7,8-hexahydro-1H-benzo[f]indazol-6-yl)-1-methyl-1H-pyrazole-3-sulfonamide] came in with an inhibition at 5 min of 50 to 75%.
Then `O=C(c1ncc(C(F)(F)F)s1)[C@]12Cc3cnn(-c4ccc(F)cc4)c3C=C1CC[C@H](N(C1CC1)S(=O)(=O)c1ccc(F)cc1)C2` [Example 177, N-cyclopropyl-4-fluoro-N-((4aS,6S)-1-(4-fluorophenyl)-4a-(5-(trifluoromethyl)thiazole-2-carbonyl)-4,4a,5,6,7,8-hexahydro-1H-benzo[f]indazol-6-yl)benzenesulfonamide], with at most 25%.
Then `Cn1ccc(S(=O)(=O)N(CC2CC2)[C@H]2CCC3=Cc4c(cnn4-c4ccc(F)cc4)C[C@]3(C(=O)c3ncc(C(F)(F)F)s3)C2)n1` [Example 179, N-(cyclopropylmethyl)-N-((4aS,6S)-1-(4-fluorophenyl)-4a-(5-(trifluoromethyl)thiazole-2-carbonyl)-4,4a,5,6,7,8-hexahydro-1H-benzo[f]indazol-6-yl)-1-methyl-1H-pyrazole-3-sulfonamide], with 25 to 50%; and `CC(C)N([C@H]1CCC2=Cc3c(cnn3-c3ccc(F)cc3)C[C@]2(C(=O)c2cc(C(F)(F)F)ccn2)C1)S(=O)(=O)c1ccn(C)n1` [Example 186, N-((4aS,6S)-1-(4-fluorophenyl)-4a-(4-(trifluoromethyl)picolinoyl)-4,4a,5,6,7,8-hexahydro-1H-benzo[f]indazol-6-yl)-N-isopropyl-1-methyl-1H-pyrazole-3-sulfonamide], with 50 to 75%; and `CC(C)N(C(=O)c1cnn(C)c1)[C@H]1CCC2=Cc3c(cnn3-c3ccc(F)cc3)C[C@]2(C(=O)c2ncc(C(F)(F)F)s2)C1` [Example 211, N-((4aS,6S)-1-(4-fluorophenyl)-4a-(5-(trifluoromethyl)thiazole-2-carbonyl)-4,4a,5,6,7,8-hexahydro-1H-benzo[f]indazol-6-yl)-N-isopropyl-1-methyl-1H-pyrazole-4-carboxamide], with 25 to 50%.
The value for `Cn1ccc(S(=O)(=O)N(C2CC(F)(F)C2)[C@H]2CCC3=Cc4c(cnn4-c4ccc(F)cc4)C[C@]3(C(=O)c3cc(C(F)(F)F)ccn3)C2)n1` [Example 227, N-(3,3-difluorocyclobutyl)-N-((4aS,6S)-1-(4-fluorophenyl)-4a-(4-(trifluoromethyl)picolinoyl)-4,4a,5,6,7,8-hexahydro-1H-benzo[f]indazol-6-yl)-1-methyl-1H-pyrazole-3-sulfonamide] was 25 to 50%; that for `O=C(c1cc(Cl)ccn1)[C@]12Cc3cnn(-c4ccc(F)cc4)c3C=C1CC[C@H](N(C1CC1)S(=O)(=O)c1ccc(F)cc1)C2` [Example 232, N-((4aS,6S)-4a-(4-chloropicolinoyl)-1-(4-fluorophenyl)-4,4a,5,6,7,8-hexahydro-1H-benzo[f]indazol-6-yl)-N-cyclopropyl-4-fluorobenzenesulfonamide] was 25 to 50%.
In turn, `Cn1cc(S(=O)(=O)N(CC(C)(C)O)[C@H]2CCC3=Cc4c(cnn4-c4ccc(F)cc4)C[C@]3(C(=O)c3cc(F)ccn3)C2)cn1` [Example 248, N-((4aS,6S)-1-(4-fluorophenyl)-4a-(4-fluoropicolinoyl)-4,4a,5,6,7,8-hexahydro-1H-benzo[f]indazol-6-yl)-N-(2-hydroxy-2-methylpropyl)-1-methyl-1H-pyrazole-4-sulfonamide] had an inhibition at 5 min of at most 25%.
The compound `Cn1ccc(S(=O)(=O)N(C2CC(F)(F)C2)[C@H]2CCC3=Cc4c(cnn4-c4ccc(F)cc4)C[C@]3(C(=O)c3ncc(C(F)(F)F)s3)C2)n1` [Example 270, N-(3,3-difluorocyclobutyl)-N-((4aS,6S)-1-(4-fluorophenyl)-4a-(5-(trifluoromethyl)thiazole-2-carbonyl)-4,4a,5,6,7,8-hexahydro-1H-benzo[f]indazol-6-yl)-1-methyl-1H-pyrazole-3-sulfonamide] registered an inhibition at 5 min of at most 25%.
The value for `Cn1ccc(S(=O)(=O)N([C@H]2CCC3=Cc4c(cnn4-c4ccc(F)cc4)C[C@]3(C(=O)c3ncc(C(F)(F)F)s3)C2)[C@H]2C[C@@](C)(O)C2)n1` [Example 277, N-((4aS,6S)-1-(4-fluorophenyl)-4a-(5-(trifluoromethyl)thiazole-2-carbonyl)-4,4a,5,6,7,8-hexahydro-1H-benzo[f]indazol-6-yl)-N-((1s,3R)-3-hydroxy-3-methylcyclobutyl)-1-methyl-1H-pyrazole-3-sulfonamide] was at most 25%.
Then `Cn1cnc(S(=O)(=O)N(C2CC2)[C@H]2CCC3=Cc4c(cnn4-c4ccc(F)cc4)C[C@]3(C(=O)c3ncc(C(F)(F)F)s3)C2)n1` [Example 305, N-cyclopropyl-N-((4aS,6S)-1-(4-fluorophenyl)-4a-(5-(trifluoromethyl)thiazole-2-carbonyl)-4,4a,5,6,7,8-hexahydro-1H-benzo[f]indazol-6-yl)-1-methyl-1H-1,2,4-triazole-3-sulfonamide], with 25 to 50%; and `Cn1cnc(S(=O)(=O)N(C2CC2)[C@H]2CCC3=Cc4c(cnn4-c4ccc(F)cc4)C[C@]3(C(=O)c3cc(C(F)(F)F)ccn3)C2)n1` [Example 306, N-cyclopropyl-N-((4aS,6S)-1-(4-fluorophenyl)-4a-(4-(trifluoromethyl)picolinoyl)-4,4a,5,6,7,8-hexahydro-1H-benzo[f]indazol-6-yl)-1-methyl-1H-1,2,4-triazole-3-sulfonamide], with at most 25%.
